The assay concerns the target T1, CYP199A4 (Rhodopseudomonas palustris, UniProt Q2IU02).
T1 sequence (Q2IU02 1-410): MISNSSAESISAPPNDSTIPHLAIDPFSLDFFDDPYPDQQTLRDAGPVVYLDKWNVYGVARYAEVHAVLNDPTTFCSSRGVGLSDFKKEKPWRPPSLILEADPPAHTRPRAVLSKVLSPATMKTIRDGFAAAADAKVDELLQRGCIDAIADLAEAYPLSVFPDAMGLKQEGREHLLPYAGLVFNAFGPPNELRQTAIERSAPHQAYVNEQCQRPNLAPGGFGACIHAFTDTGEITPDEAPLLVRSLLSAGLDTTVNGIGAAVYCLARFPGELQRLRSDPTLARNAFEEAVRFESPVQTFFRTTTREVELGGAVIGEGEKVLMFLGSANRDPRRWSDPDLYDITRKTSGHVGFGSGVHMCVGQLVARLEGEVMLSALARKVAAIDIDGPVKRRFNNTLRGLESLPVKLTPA
Kind of assay: UV-vis spectral titration. The class given is binding.

Structures are written as SMILES.

In the case of `CC(=O)c1ccc(C(=O)O)cc1` [4-acetylbenzoic acid], the dissociation constant (Kd) came to 140 ± 5 µM.

Values taken from publication PMC10795798 (Journal of the American Chemical Society, 2023).
